According to patent publication US20180296551A1, “METHODS AND COMPOSITIONS FOR TREATING NEURODEGENERATIVE DISEASES” (priority 2015, published 2018):

What was measured:
SOD1-G93A mice [1] = test: Survival (time taken until death) of SOD1-G93A mice; type: in vivo
Method: Experimental set-up: 50 day old female SOD1-G93A mice were treated with either 5 mg/kg AMD3100 alone, 896 mg/kg Na-L-lactate alone or a combination of […] AMD3100 and 896 mg/kg Na-L-lactate twice a week, starting at 50 days old (for ALS), until death. All treatments were administered subcutaneously. The mice were weighed once a week following the various treatments and tested for motor function, also once a week. The time taken until death was recorded.
Experimental set-up: 50 day old female SOD1-G93A mice were treated with either 5 mg/kg AMD3100 alone or a complex of 0.25 mg/kg AMD3100+0.08 mg/kg Zinc or 0.125 mg/kg AMD3100+0.04 mg/kg Zinc twice a week, starting at 50 days old until death. All treatments were administered subcutaneously. The mice were weighed once a week following the various treatments and tested for motor function, also once a week. The time taken until death was recorded.
Experimental set-up: 50 day old male SOD1-G93A mice were treated with either 5 mg/kg AMD3100 alone or a complex of 0.5 mg/kg AMD3100+0.17 mg/kg Zinc+896 mg/kg lactate twice a week, starting at 50 days old, till death. All treatments were administered subcutaneously. The time taken until death was recorded.

AP = AP by ELISA in 3×Tg-AD mice; type: in vivo; details: membrane fraction, 0.5 mg/kg AMD3100 (+0.17 mg/kg Zn+896 mg/kg lactate), vs PBS
Method: Experimental set-up: 9 month old 3×Tg-AD mice were treated with PBS or 0.5 mg/kg AMD3100 or 0.5 mg/kg AMD3100 0.17 mg/kg Zn or 0.5 mg/kg AMD3100+0.17 mg/kg Zn+896 mg/kg lactate once a week. All treatments were administered subcutaneously. After 3 month of treatment, all mice were subjected to Y maze test in order to evaluate their cognitive function. Each mouse was allowed to explore two arms of the Y maze for 5 min, rested for another 5 min, and then explored all 3 arms of the Y maze for another 5 min.

MCT1 = details: female SOD1-G93A mice; 5 mg/kg AMD3100; spinal cord (FIG. 4A); vs control
Excerpt: The control group is set to 100%. Results are mean ±S.E.M, T-test; *p<0.05.

SOD1-G93A mice [2] = details: SOD1-G93A transgenic mice; previously shown; cited from earlier work
SOD1-G93A mice [3] = details: SOD1-G93A transgenic mice; previously shown; cited from earlier work; remark: listed apart in the source
SOD1-G93A mice [4] = details: SOD1-G93A transgenic mice; previously shown; cited from earlier work; remark: listed apart in the source

SMILES	median survival (SOD1-G93A mice [1]; female SOD1-G93A mice, 5 mg/kg AMD3100 s.c. twice a week from 50 days old) [days]	median survival (SOD1-G93A mice [1]; male SOD1-G93A mice, 5 mg/kg AMD3100 s.c. twice a week from 50 days old) [days]	AP change by ELISA (AP)	MCT1 levels (MCT1)	survival (in words) (SOD1-G93A mice [2])	motor function (in words) (SOD1-G93A mice [3])	disease onset (in words) (SOD1-G93A mice [4])	median survival (SOD1-G93A mice [1]; female SOD1-G93A mice, 896 mg/kg lactate s.c. twice a week from 50 days old) [days]
c1cc(CN2CCCNCCNCCCNCC2)ccc1CN1CCCNCCNCCCNCC1 [AMD3100, 1,1′-[1,4-phenylenebis(methylene)]bis [1,4,8,11-tetraazacyclotetradecane]]	144	140	Reduction in AP was statistically significant	increase	significantly increased	improved	delayed	
C[C@H](O)C(=O)[O-].[Na+] [lactate, Na-L-lactate]								148
